ChEMBL document CHEMBL5241122, “A concise review on marine bromopyrrole alkaloids as anticancer agents” (Bioorg Med Chem Lett, 2023)
Values belong to the molecule of their own block, whether it stands above or below them. Where a SMILES comes first, the peptide text is derived from it. [ ]: non-standard residue; d: D form. The star is where a group is joined. X1 = Cn1c(Br)c(Br)c(Br)c1C(=O)*; NMeL = CN[C@@H](CC(C)C)C(=O)O

Assays:
P388 = test: Cytotoxicity against mouse P388 cells; format: functional, cell-based
WRL68 = test: Cytotoxicity against human WRL68 cells by MTT assay; format: functional, cell-based
Caco-2 = test: Cytotoxicity against human Caco-2 cells by MTT assay; format: functional, cell-based
MCF7 = test: Cytotoxicity against human MCF7 cells by MTT assay; format: functional, cell-based
[1] = target: Cyclin-dependent kinase 5/CDK5 activator 1 (Homo sapiens, UniProt Q00535); test: Inhibition of CDK5/p25 (unknown origin); format: protein-complex assay
Cyclin-dependent kinase 5/CDK5 activator 1, sequence (Q00535 whole entry): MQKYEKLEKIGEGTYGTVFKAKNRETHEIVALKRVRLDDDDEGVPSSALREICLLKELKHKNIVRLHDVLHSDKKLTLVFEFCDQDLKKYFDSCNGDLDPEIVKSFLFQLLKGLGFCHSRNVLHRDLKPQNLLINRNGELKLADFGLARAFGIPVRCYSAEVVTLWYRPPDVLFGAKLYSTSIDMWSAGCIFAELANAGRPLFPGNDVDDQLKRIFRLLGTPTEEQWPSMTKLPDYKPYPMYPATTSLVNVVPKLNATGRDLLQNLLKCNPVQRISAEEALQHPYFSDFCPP
Cyclin-dependent kinase 5/CDK5 activator 1, sequence (Q15078 whole entry, further chain): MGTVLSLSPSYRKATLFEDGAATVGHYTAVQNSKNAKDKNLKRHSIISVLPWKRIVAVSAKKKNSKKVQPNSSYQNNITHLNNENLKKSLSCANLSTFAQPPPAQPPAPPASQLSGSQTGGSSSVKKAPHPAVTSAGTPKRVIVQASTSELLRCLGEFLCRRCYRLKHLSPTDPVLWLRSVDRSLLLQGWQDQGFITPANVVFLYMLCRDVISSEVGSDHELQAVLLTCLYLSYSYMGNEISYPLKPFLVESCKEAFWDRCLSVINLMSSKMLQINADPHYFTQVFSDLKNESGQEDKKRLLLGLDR

KB 3-1 = test: Cytotoxicity against human KB-3-1 cells assessed as cell growth inhibition; format: functional, cell-based
SW-620 = test: Cytotoxicity against human SW620 cells assessed as cell growth inhibition; format: functional, cell-based
[2] = Inhibition of CK1gamma (unknown origin); design: species or system Homo sapiens
KB = test: Cytotoxicity against human KB cells; format: functional, cell-based
K562 [3] = test: Cytotoxicity against human K562 cells; format: functional, cell-based
L1210 = test: Cytotoxicity against mouse L1210 cells; format: functional, cell-based
[4] = target: E3 ubiquitin-protein ligase CBL-B (Homo sapiens, UniProt Q13191); test: Inhibition of Cbl-b (unknown origin) assessed as inhibition of Cbl-b dependent ubiquitination in presence of ATP measured after 13 hrs by fluorescence microplate reader assay
E3 ubiquitin-protein ligase CBL-B, sequence (Q13191 whole entry): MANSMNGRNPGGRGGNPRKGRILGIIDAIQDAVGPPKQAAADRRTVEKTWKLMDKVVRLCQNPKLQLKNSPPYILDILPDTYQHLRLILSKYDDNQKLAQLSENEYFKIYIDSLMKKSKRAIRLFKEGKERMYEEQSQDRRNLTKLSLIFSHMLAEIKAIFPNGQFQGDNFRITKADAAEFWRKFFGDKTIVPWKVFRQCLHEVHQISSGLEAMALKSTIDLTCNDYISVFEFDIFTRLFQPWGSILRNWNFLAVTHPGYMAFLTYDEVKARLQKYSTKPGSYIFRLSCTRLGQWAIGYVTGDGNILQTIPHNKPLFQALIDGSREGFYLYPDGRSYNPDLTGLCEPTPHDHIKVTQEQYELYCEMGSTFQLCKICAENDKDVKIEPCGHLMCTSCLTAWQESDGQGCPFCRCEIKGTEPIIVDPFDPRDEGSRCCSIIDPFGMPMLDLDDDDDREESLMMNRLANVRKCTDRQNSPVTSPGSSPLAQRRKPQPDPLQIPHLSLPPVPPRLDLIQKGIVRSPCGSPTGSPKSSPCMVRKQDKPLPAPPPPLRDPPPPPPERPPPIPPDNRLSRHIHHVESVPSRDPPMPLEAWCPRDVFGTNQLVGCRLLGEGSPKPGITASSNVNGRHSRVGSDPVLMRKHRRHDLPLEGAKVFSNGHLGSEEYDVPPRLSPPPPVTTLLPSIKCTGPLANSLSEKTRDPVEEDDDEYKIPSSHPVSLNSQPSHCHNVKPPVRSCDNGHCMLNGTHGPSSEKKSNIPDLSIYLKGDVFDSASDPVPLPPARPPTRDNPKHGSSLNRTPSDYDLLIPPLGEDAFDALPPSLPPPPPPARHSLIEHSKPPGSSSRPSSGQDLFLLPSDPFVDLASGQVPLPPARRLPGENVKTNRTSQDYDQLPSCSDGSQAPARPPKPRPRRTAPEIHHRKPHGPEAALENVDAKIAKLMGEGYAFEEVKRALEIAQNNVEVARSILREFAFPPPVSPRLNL

L02 = test: Cytotoxicity against human L02 cells by MTT assay; format: functional, cell-based
K562 [5] = test: Cytotoxicity against human K562 cells by MTT assay; format: functional, cell-based
VIP peptides = VIP peptides (Homo sapiens, UniProt P01282); test: Displacement of [125I]-VIP from Vasoactive intestinal peptide (unknown origin) incubated for 120 mins by gamma scintillation counter analysis
VIP peptides, sequence (P01282 125-152 limits assumed): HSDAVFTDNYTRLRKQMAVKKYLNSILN

[6] = Displacement of [125I]-somatostatin from somatostatin (unknown origin) incubated for 60 mins by gamma scintillation counter analysis; design: species or system Homo sapiens
MDA-MB-231 = test: Cytotoxicity against human MDA-MB-231 cells assessed as cell growth inhibition by cell based assay; format: functional
HT-29 = test: Cytotoxicity against human HT-29 cells assessed as cell growth inhibition by cell based assay; format: functional
A549 = test: Cytotoxicity against human A549 cells assessed as cell growth inhibition by cell based assay; format: functional
PSN1 = test: Cytotoxicity against human PSN1 cells assessed as cell growth inhibition by cell based assay; format: functional
[7] = target: Receptor tyrosine-protein kinase erbB-2 (Homo sapiens, UniProt P04626); test: Inhibition of c-ErbB-2 (unknown origin)
Receptor tyrosine-protein kinase erbB-2, sequence (P04626 whole entry): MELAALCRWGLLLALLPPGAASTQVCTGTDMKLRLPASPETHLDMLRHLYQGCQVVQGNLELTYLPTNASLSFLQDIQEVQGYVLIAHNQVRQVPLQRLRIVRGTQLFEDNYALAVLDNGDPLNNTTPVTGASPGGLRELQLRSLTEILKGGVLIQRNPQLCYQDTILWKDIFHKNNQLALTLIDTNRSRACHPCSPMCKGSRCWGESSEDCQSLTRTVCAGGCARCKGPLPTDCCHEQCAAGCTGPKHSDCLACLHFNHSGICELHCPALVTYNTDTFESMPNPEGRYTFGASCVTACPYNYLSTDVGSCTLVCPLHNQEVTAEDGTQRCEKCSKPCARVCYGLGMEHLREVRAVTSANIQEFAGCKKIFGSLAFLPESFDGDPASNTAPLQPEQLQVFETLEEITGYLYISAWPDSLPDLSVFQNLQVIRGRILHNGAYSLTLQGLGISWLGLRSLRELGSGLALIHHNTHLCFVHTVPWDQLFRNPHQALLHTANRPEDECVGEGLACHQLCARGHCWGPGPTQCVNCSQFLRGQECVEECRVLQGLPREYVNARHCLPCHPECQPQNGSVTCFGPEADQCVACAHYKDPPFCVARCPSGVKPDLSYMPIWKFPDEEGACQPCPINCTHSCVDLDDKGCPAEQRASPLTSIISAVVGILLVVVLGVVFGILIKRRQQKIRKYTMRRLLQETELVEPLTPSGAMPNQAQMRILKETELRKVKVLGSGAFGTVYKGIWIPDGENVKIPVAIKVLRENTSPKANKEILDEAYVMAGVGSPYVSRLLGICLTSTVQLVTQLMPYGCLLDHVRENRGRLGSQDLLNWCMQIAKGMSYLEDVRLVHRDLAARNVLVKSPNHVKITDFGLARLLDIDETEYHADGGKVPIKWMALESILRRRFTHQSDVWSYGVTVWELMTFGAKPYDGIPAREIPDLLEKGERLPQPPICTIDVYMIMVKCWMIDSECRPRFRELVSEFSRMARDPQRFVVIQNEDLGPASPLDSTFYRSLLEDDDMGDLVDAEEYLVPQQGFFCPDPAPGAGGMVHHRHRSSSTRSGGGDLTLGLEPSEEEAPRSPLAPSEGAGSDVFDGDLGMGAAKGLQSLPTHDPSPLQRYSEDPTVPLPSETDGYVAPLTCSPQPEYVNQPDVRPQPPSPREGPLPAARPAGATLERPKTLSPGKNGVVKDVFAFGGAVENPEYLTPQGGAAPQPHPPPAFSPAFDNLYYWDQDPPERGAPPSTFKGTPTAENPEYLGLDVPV

[8] = target: Epidermal growth factor receptor (Homo sapiens, UniProt P00533); test: Inhibition of EGFR (unknown origin)
Epidermal growth factor receptor, sequence (P00533 whole entry): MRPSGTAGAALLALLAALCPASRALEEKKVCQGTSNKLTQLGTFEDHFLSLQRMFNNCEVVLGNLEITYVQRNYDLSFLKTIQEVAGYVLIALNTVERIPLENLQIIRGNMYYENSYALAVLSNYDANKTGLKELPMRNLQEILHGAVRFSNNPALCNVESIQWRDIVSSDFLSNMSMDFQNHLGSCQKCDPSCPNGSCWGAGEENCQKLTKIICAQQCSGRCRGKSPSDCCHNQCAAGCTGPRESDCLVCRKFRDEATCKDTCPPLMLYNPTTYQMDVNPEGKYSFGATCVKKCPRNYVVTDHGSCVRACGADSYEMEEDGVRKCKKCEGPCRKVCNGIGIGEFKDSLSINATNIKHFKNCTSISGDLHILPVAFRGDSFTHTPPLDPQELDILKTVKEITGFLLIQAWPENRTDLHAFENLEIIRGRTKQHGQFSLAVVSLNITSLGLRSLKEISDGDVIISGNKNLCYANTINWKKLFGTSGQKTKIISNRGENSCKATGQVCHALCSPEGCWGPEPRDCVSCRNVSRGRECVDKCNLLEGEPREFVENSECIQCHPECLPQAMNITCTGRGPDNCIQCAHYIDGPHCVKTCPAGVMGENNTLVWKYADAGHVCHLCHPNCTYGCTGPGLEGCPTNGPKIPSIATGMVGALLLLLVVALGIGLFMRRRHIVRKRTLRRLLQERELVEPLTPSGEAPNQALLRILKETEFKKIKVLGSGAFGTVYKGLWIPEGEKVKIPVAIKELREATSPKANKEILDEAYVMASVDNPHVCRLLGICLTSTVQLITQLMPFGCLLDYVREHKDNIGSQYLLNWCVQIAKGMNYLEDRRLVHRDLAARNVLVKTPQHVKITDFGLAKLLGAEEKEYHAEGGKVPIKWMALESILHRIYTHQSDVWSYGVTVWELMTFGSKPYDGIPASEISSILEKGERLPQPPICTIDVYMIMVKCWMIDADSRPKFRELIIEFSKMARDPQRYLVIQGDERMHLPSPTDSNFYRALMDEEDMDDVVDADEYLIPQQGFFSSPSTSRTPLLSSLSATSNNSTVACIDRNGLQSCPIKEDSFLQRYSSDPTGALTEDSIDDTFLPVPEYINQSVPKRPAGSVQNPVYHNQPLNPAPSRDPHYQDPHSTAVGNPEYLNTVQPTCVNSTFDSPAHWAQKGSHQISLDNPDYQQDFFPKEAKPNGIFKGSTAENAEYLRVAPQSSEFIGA

MONO-MAC-6 = test: Cytotoxicity against human MONO-MAC-6 cells incubated for 48 hrs by [3H]-thymidine incorporation based liquid scintillation counter analysis; format: functional, cell-based
PC-9 = test: Cytotoxicity against human PC-9 cells incubated for 48 hrs by MTT assay; format: functional, cell-based; conditions: PC-9, 48 h
U-937 = test: Cytotoxicity against human U-937 cells incubated for 48 hrs by MTT assay; format: functional, cell-based; conditions: U-937, 48 h
LoVo = test: Inhibition of cell growth in human LoVo cells by SRB assay; format: functional, cell-based
[9] = Inhibition of recombinant human MAPK expressed in Escherichia coli assessed as reduction in MEK-1 phosphorylation incubated for 60 mins by ELISA assay
Jurkat = test: Antiinflammatory activity in PMA induced human Jurkat cells assessed as inhibition of IL-2 production by EIA assay; format: functional, cell-based
THP-1 = test: Antiinflammatory activity in LPS induced human THP-1 cells assessed as inhibition of TNF-alpha production by EIA assay; format: functional, cell-based

Compound: NC1=N[C@]23[C@H](N1)c1[nH]c(Br)c(Br)c1C(=O)N2C[C@H](O)[C@H]3O
IC50 (P388): 78.4 µM

Compound: Cn1c(C(=O)NNC(=S)Nc2ccccc2F)cc(Br)c1Br
IC50 (WRL68): 10 nM | IC50 (Caco-2): 10 nM | IC50 (MCF7): 10 nM

IC50 [1]: 160 nM | IC50 [2]: 30 nM
Compound: N=C1NC(=O)C(=C2CCNC(=O)c3[nH]c(Br)cc32)N1
IC50 (KB 3-1): 2000 nM | IC50 (SW-620): 3.1 µM

Compound: N=C1N=C(NCCS(=O)(=O)O)C(O)(/C=C/CNC(=O)c2cc(Br)c(Br)[nH]2)N1 (stereo unspecified)
IC50 (KB): 20.7 µM | IC50 (K562 [3]): 20.7 µM

Compound: NC1NC2c3c([nH]c(Br)c3Br)C(=O)N3C[C@H](Cl)[C@H](O)C23N1 (stereo partly specified)
IC50 (L1210): 5.68 µM

IC50 [4]: 18 µM
Compound: Cn1cc(Br)cc1C(=O)NC[C@H]1CC2N=C(N)NC2[C@@H](c2c[nH]c(N)n2)[C@@H]1CNC(=O)c1cc(Br)c(Br)[nH]1 (stereo partly specified)

IC50 [4]: 18 µM
Compound: Cn1cccc1C(=O)NC[C@H]1CC2N=C(N)NC2[C@@H](c2c[nH]c(N)n2)[C@@H]1CNC(=O)c1cc(Br)c(Br)n1C (stereo partly specified)

Compound: O=C1NC(=O)/C(=C/CCNC(=O)c2[nH]cc(Br)c2Br)N1
IC50 (L02): 12.3 µM | IC50 (K562 [5]): 6.1 µM

IC50 (VIP peptides): 19.2 µM | IC50 [6]: 2200 nM
Compound: NC1=NC2C[C@H](CNC(=O)c3cc(Br)c[nH]3)[C@@H](CNC(=O)c3cc(Br)c[nH]3)[C@H](c3nc(N)c[nH]3)C2N1 (stereo partly specified)

Compound: COc1cc(NC(=S)NNC(=O)c2cc(Br)c(Br)n2C)cc(OC)c1OC
IC50 (WRL68): 30 nM | IC50 (Caco-2): 30 nM | IC50 (MCF7): 30 nM

IC50 [4]: 18 µM
Compound: Cn1c(C(=O)NC[C@H]2CC3N=C(N)NC3[C@@H](c3c[nH]c(N)n3)[C@@H]2CNC(=O)c2cc(Br)c[nH]2)cc(Br)c1Br (stereo partly specified)

IC50 [4]: 18 µM
Compound: Cn1cc(Br)cc1C(=O)NC[C@@H]1[C@@H](CNC(=O)c2ccc(Br)[nH]2)CC2N=C(N)NC2[C@H]1c1c[nH]c(N)n1 (stereo partly specified)

Compound: CC[C@H](C)[C@H](NC(=O)c1c(Br)c(Br)c(Br)n1C)C(=O)N(C)[C@@H](CC(C)C)C(=O)N1CCC[C@H]1C(=O)N[C@@H](CCC(N)=O)C(=O)O (X1-I[NMeL]PQ-OH)
GI50 (MDA-MB-231): > 12 µM | GI50 (HT-29): > 12 µM | GI50 (A549): > 12 µM | GI50 (PSN1): > 12 µM

IC50 [7]: 37.9 µM
Compound: N=C1N=C(NCCS(=O)(=O)O)/C(=C/C(O)CNC(=O)c2cc(Br)c[nH]2)N1 (mixture of isomers)

IC50 [7]: 37.9 µM | IC50 [8]: 44.6 µM
Compound: N=C1N=C(NCCS(=O)(=O)O)/C(=C/C(O)CNC(=O)c2cc(Br)c(Br)[nH]2)N1 (mixture of isomers) [TAUROACIDIN A]

Compound: COC(=O)CC1CNC(=O)c2cc(Br)c(Br)n21 (racemic)
EC50 (P388; read-out: ED50 (the source's name)): 82 µM

Compound: NC1=N/C(=C2/CCNC(=O)c3[nH]ccc32)C(=O)N1 [DEBROMOHYMENIALDISINE]
IC50 (MONO-MAC-6): 9.67 µM

Compound: COc1cccc2c1C(=O)c1c(O)c3c(c(O)c1C2=O)C[C@@](O)(C(=O)CO)C[C@@H]3O[C@H]1C[C@H](N)[C@H](O)[C@H](C)O1 [DOXORUBICIN]
IC50 (PC-9): 220 nM | IC50 (U-937): 50 nM

IC50 (LoVo): 6 nM | IC50 [9]: 6 nM | IC50 (Jurkat): 4 µM
Compound: NC1=NC(=O)/C(=C2\CCNC(=O)c3[nH]c(Br)cc32)N1 [HYMENIALDISINE]
IC50 (MONO-MAC-6): 0.61 µM

Compound: S=C(S)N1CCCC1 [PYRROLIDINE DITHIOCARBAMATE]
IC50 (THP-1): 6.11 µM | IC50 (Jurkat): 5.12 µM

IC50 (VIP peptides): 19.8 µM | IC50 [6]: 270 nM
Compound: Nc1nc([C@H]2[C@H](CNC(=O)c3cc(Br)c[nH]3)[C@@H](CNC(=O)c3cc(Br)c[nH]3)[C@@H]2c2c[nH]c(N)n2)c[nH]1 [SCEPTRIN]
